# Assay results as given in patent US5266578A, “Heterocyclically substituted quinolylmethoxy-phenylacetamides” (Bayer Aktiengesellschaft, priority 1991, dated 1993).
# Tested on: 5-LO
# Experiment: lipoxygenase inhibition: release of leukotriene B4 in polymorphonuclear human leukocytes (PMN) after addition of substances and Ca ionophore, reverse phase HPLC
# Format: cell-based
# Conditions: LTB4 release
# Procedure: The pharmacological effects of the substances according to the invention are determined by the following method:
# As a measure of the lipoxygenase inhibition, the release of leukotriene B4 (LTB.) in polymorphonuclear human leukocytes (PMN) was determined by addition of substances and Ca ionophore by means of reverse phase HPLC according to Borgeat, P. et al., Proc. Nat. Acad. Sci, 76, 2148-2152 (1979).
# Table 1 lists by way of example the values obtained by this test for some compounds according to the invention: […]
row,SMILES,IC50 [nM]
1,"O=C(Nc1nccs1)C(c1ccc(OCc2ccc3ccccc3n2)cc1)C1CCCCCC1 (stereo not shown) [Example 4, N-(2-Thiazolyl)-2-[4-(quinolin-2-yl-methoxy)phenyl]-2-cycloheptyl-acetamide]",430
2,"O=C(NC1=NCCS1)C(c1ccc(OCc2ccc3ccccc3n2)cc1)C1CCCCCC1 (stereo not shown) [Example 3, N-(2-Thiazolinyl)-2-[4-(quinolin-2-yl-methoxy)phenyl]-2-cycloheptyl-acetamide]",290
3,"O=C(Nc1nnn[nH]1)C(c1ccc(OCc2ccc3ccccc3n2)cc1)C1CCCCCC1 (stereo not shown) [Example 2, N-(5-Tetrazolyl)-2-[4-(quinoline-2-yl-methoxy)phenyl]-2-cycloheptyl-acetamide]",260
4,"O=C(Nc1ccccn1)C(c1ccc(OCc2ccc3ccccc3n2)cc1)C1CCCCCC1 (stereo not shown) [Example 1, N-(2-Pyridyl)-2-[4-(quinolin-2-yl-methoxy)phenyl]-2-cycloheptyl-acetamide]",500
